Series [1] deals with mutant PI3Kα. The note with it: role: inhibitor; relative to non-mutant PI3Kα; cited from earlier work.
Series [2] can be described thus: Light sensitivity of GDC-0077 (INAVOLISIB). Format: physicochemical.
Series [3] has as its system PI3Kα isoform. The following applies: role: inhibitor; relative to PI3 KB, PI3K8 and PI3Ky isoforms; cited from earlier work.

The structures appear in SMILES notation. Entries after “also recorded” stand apart in the source; their conditions may differ.

In the case of `C[C@H](Nc1ccc2c(c1)OCCn1cc(N3C(=O)OC[C@H]3C(F)F)nc1-2)C(N)=O` [GDC-0077 (INAVOLISIB), (S)-2-((2-((S)-4-(difluoromethyl)-2-oxooxazolidin-3-yl)-5,6-dihydrobenzo[f]imidazo[1,2-d][1,4]oxazepin-9-yl)amino)propanamide], in series [1], the “Selectivity for mutant PI3Kα (in words)” value is “selective for mutant PI3Kα expressing tumors relative to non-mutant PI3Kα expressing cells; also recorded: selective activity in modulating mutant forms of the PI3Kα (alpha) isoform”. In series [2], the “Light sensitivity (in words)” value is “degrades under light stress conditions; also recorded: sensitive to light”. The “Selectivity for PI3Kα isoform (in words)” value in series [3] was “selectively inhibits the PI3Kα isoform relative to the PI3 KB, PI3K8, and PI3Ky isoforms”.

The record behind these values is US20260335335A1, “PHARMACEUTICAL FORMULATION COMPRISING A COATED TABLET” (Genentech, Inc., priority 2023, published 2026).
